We go through four compounds from patent US20260071252A1, “REVERSIBLE NANOPARTICLE AGGREGATES AND METHODS FOR DETECTING PROTEASES” (The Regents of the University of California, priority 2022, published 2026).

Where no end group is shown, it is not given here.

Data set [1] in a line: Dissociation of Arg-Arg-AuNPs assemblies with HS-PEGs (UV-Vis percentage of dissociation, MANTA size). From the text:
Dissociation of the AuNPs assemblies. […] HS-PEG6-OCH3 was chosen because its grafting on AuNPs ensure a high colloidal stability of these latter. Indeed, the grafting of thiolated PEGs has been widely reported in the literature via the formation of a strong Au—S bond conferring to the particles a high colloidal stability due to a combination of hydrophilicity and steric hindrance.^30-32 The Au—S bond being stronger than the arginine-citrate, arginine-gold or even citrate-gold interactions, […] was expected to be capable of progressively replacing the arginine/citrate layers at the gold surface, disrupting the electrostatic network, and eventually dispersing the AuNPs (Scheme 1). Briefly, aqueous suspensions Arg-Arg-AuNPs assemblies were exposed to increasing concentrations of HS-PEG6-OCH3, and the dissociation of the assemblies was characterized by TEM, MANTA, FTIR and UV-Vis spectroscopies (FIG. 2).
The presence of a PEG layer around the AuNPs explains the difference in the hydrodynamic diameter versus the initial AuNPs-citrate (48±32 nm vs 40±25 nm). Remarkably, the LSPR band of the dissociated AuNPs was identical to the AuNPs-citrate: The color of the sample returned to its initial bright red color. […] For the remainder of this study, the efficiency of the dissociation will be characterized by the percentage of dissociation (%) as measured by UV-Vis spectroscopy (comparison between the LSPR band after dissociation versus that from AuNPs-citrate). See the experimental section in the supporting information for more details. […] This finding is particularly interesting because the typical grafting density of HS-PEG6-OCH3 on dispersed AuNPs is reported to be between 3.5 and 4 HS-PEG6-OCH3/nm^2.^33 This implies that no excess of HS-PEGs was needed to dissociate the entire assembly-only enough to cover all the gold surface. It is worth noting that the kinetics of the dissociation was almost instantaneous (equilibrium reached within a minute) (FIG. 14). A video of the dissociation of the AuNPs assemblies is available online.
Dissociation. Stock solutions of the different HS-PEGs with concentrations ranging from 10 μM to 1 mM were prepared. Specific volumes of each solution were added to a 96-well plate in order to reach the desired final HS-PEGs concentration and then 100 μL of Arg-Arg-AuNPs were added. For complex matrices experiments, the Arg-Arg-AuNPs were first concentrated 10 times by centrifugation and then dispersed in complex media (sea water, pooled human saliva, plasma, urine, bile or HEK cell lysates) that represented thus 90% of the total volume except for bile, which was only 20%. Quickly after the addition of AuNPs, the dissociation of the assembly was monitored and the ratio of the absorbances at 520 nm and 700 nm was recorded over time. The percentage of dissociation is described as follows:
The optical absorption measurements were collected using a hybrid multi-mode microplate reader (Synergy™ H1 model, BioTek Instruments, Inc.) in a 96-well plate. The dissociation of assembly was characterized by measuring the ratio of the absorbance at 520 nm or 530 nm and 700 nm or 820 nm for 20 nm NPs or 40 nm NPs, respectively.
The multispectral advanced nanoparticle tracking analysis (MANTA) is a technique that builds images from the particles' light scattering via three lasers of different wavelengths (for example, blue, green, and red); the wavelength of scattering depends on nanoparticle size. Thus, small particles (less than, or <, 100 nm) appear blue while larger particles appear greener or redder. MANTA uses these images to count the nanoparticles and calculate their size based on Brownian motion. […] 3000™ (Horiba Scientific, USA). The temperature was set to 25° C. during the measurement. Automated noise analysis determines the optimal wavelength for representing each nanoparticle. Here, 8-bit composite videos were generated, and 10 videos were used per analysis (300 frames for seconds).

Data set [2] can be described thus: Dissociation efficiency of HS-PEG6-OCH3 for alternative assembly conditions or coating ligands. The following applies: high concentration (>100 μM) of HS-PEG6-OCH3.
Experimental: First, peptide-free conditions were used to promote the assembly of AuNPs-citrate and its dissociation with HS-PEG6-OCH3 was evaluated (FIG. 3A). Here, salts were added to AuNPs-citrate to induce aggregation via disruption of the electrostatic repulsion forces between the particles. […] Unlike the peptide Arg-Arg, these ions cannot sterically prevent the AuNPs from falling in an irreversible aggregated state.
AuNPs with different coating ligands were also evaluated and compared to citrate: bis(p-sulfonatophenyl)phenylphosphine (BSPP), mercaptobenzoic acid (MBA), or thiolated PEG-COOH (HS-PEG-COOH; Mw=634 g·mol^−1). […] This is because MBA and HS-PEG-COOH make covalent Au—S bonds with the gold surface that prevent subsequent grafting of HS-PEG6-OCH3.
Finally, an alternative control peptide was used for assembly (Cys-Arg-Lys).
Data set [3] in a line: Dissociation of AgNP aggregates by A18 fragments released by Mpro cleavage. The conditions noted are these: AgNPs 20 nm, color from blue to yellow.
For data set [4], the target named is SARS-CoV-2 main protease (Mpro) (Severe acute respiratory syndrome coronavirus 2, UniProt P0DTD1).
The test system of a further data set is trypsin activity. The experiment in a line: Detection of trypsin activity in vivo with photoacoustic imaging, gold nanorods assemblies. The following applies: mouse model.
The next data set relates to trypsin. The experiment in a line: Trypsin sensing with HS-PEG-peptide conjugates and Arg-Arg-AuNPs assemblies. Type of data set: biochemical. As to the method: Peptides containing the motif Arg-Arg-Lys (RRK) were thus conjugated to a thiolated PEG capped with a carboxyl group (HS-PEG12-COOH, Mw=634 Da) via EDC/NHS cross-linking reaction. Three peptides based on the motif RRK were investigated and the number of RRK repetitions varied from 1 to 3 to increase the mass and charge of the resulting HS-PEG-peptide conjugate (FIG. 6A).
From concentrations of 10 μM, HS-PEG12-COOH is capable to dissociate 100% of the assemblies (FIG. 21). However, the conjugation of the peptides to the HS-PEG12-COOH was expected to decrease its capacity to dissociate the assemblies as it increases its size and charge. In this context, the addition of the HS-PEG-peptide conjugates to AuNPs assemblies could not generate a colorimetric signal. However, in the presence of trypsin, the proteolytic cleavage could progressively remove the amino acids residues from the conjugate, thus reducing its size and charge that would restore the dissociation capacity. A colorimetric signal, proportional to the trypsin activity, could thus be observed (FIG. 6B).
Typically, 1 mL of HS-PEG12-COOH (HS—(CH2CH2O)12—CH2CH2COOH, 634 Da, 1 mM) dissolved in MES buffer (10 mM, pH=5.5) was activated via the addition of 100 μL of EDC (50 mM, MES) and 40 μL of NHS (500 mM, MES). The reaction was stirred at room temperature for one hour. After one hour, 1 mL of peptide (or NH2-molecule) (1 mM) dissolved in PBS (100 mM, pH=7.4) was added to the activated HS-PEG12-COOH. The reaction was stirred for 4 hours at room temperature and then stored at 4° C.
Typically, 5 μL of the PEG-peptide conjugate (0.44 mM) were added to 5 μL of PBS 1×. […] At the end of the incubation, 100 μL of aggregated AuNPs (Arg-Arg-AuNPs) were added, and a color change proportional to the trypsin concentration was observed. UV-Vis spectra were recorded 30 minutes later.

Another data set has as its system T1, HS-PEG-RRK conjugate.
T1 sequence: RRK

A further data set deals with T2, HS-PEG-RRKRRK conjugate.
T2 sequence: RRKRRK

Data set [5] has as its system T3, HS-PEG-RRKRRKRRK conjugate.
T3 sequence: RRKRRKRRK

The subject of a further data set is T4, HS-PEG-TSG conjugate.
T4 sequence: TSG

For the compound `COCCOCCOCCOCCOCCOCCOCCS` [HS-PEG6-OCH3, 0-(2-mercaptoethyl)-O′-methyl-hexa(ethylene glycol)], the “size of the aggregates (MANTA)” value in [1] (2 μM HS-PEG6-OCH3, 10 minutes, from 467±120 nm) was determined as 167±112 nm. For the same compound, the “average size of the aggregates (MANTA)” value in data set [1] (4 μM HS-PEG6-OCH3) is 136±85 nm; in data set [1] (8 μM HS-PEG6-OCH3), 124±75 nm. In addition, the “dissociation in complex matrices” value in data set [1] (10 μM HS-PEG6-OCH3, plasma, urine, saliva, bile, HEK 293 cell lysates, sea water, matrix at least 90% of volume) was “At least 80%”. Moreover, the aggregates dissociated in data set [1] (12 μM HS-PEG6-OCH3, LSPR band identical to AuNPs-citrate) was 100%. For the same compound, the “mean size (MANTA)” value in data set [1] (12 μM HS-PEG6-OCH3 and above) stood at 48±25 nm. The “dissociation of the assembly by HS-PEG6-OCH3” value in data set [2] is reported as “could not dissociate the assemblies”.
Turning to CGGKKEEAVLQ [A18 fragment], the “dissociation of AgNP aggregates” value in data set [3] is listed as “could dissociate AgNP aggregates”. Further, in data set [4], the CDC turned out to be 40 µM, the “size of AuNP aggregates after dissociation” value amounted to 26±0.30 nm, the “surface charge after dissociation” value was −27±0.95 mV and the time for dissociation is reported as at most 10 min.
“HS-PEG-RRKRRK: HS-PEG12-COOH conjugated to peptide RRKRRK via EDC/NHS; mixture of single and multiple conjugations (also: HS-PEG12 conjugated via EDC/NHS, site not given here, mixture of single and multiple conjugations)”: in the data set with trypsin activity, the photoacoustic signal result is recorded as “increase of photoacoustic signal”. Besides, in the data set with trypsin (titrated to Arg-Arg-AuNPs, up to >100 μM, no trypsin), the “dissociation capacity of the intact conjugate” value was “total quenching of the dissociation capacity”. In addition, in the data set on trypsin (trypsin 10 μM, 37° C., 24 h), the “dissociation capacity after digestion with trypsin” value is “restored”. Also, the “limit of detection of trypsin” value with trypsin (visual detection) was “picomolar”.
Consider trypsin, for which the “dissociation capacity for Arg-Arg-AuNPs after trypsin digestion” value was “HS-PEG-RRK was also enhanced” in the data set with HS-PEG-RRK conjugate; “the dissociation capacity of HS-PEG-RRKRRK (SEQ ID NO:13) and HS-PEG-[..] (SEQ ID NO:14) was restored” in the data set with HS-PEG-RRKRRK conjugate; “the dissociation capacity of HS-PEG-RRKRRK (SEQ ID NO:13) and HS-PEG-[..] (SEQ ID NO:14) was restored” in data set [5]; “It is not impacted by the digestion by trypsin” in the data set with HS-PEG-TSG conjugate.
